Results from patent US10961205B2, “1,2,4-oxadiazole derivatives as immunomodulators” (Aurigene Discovery Technologies Limited, priority 2013, dated 2021).

System: PD-L1
Assay: Rescue of mouse splenocyte proliferation in presence of recombinant PD-L1 (CFSE proliferation assay)
Type: cell-based
Settings: anti-CD3/CD28 stimulated mouse splenocytes in presence of ligand (PDL-1), 72 h, stimulated splenocyte proliferation normalised as 100%
Description: Rescue of Mouse Splenocyte Proliferation in Presence of Recombinant PD-L1/PD-L2
Recombinant mouse PD-L1 (rm-PDL-1, cat no: 1019-B7-100 & rh-PDL-1, cat no: 156-B7-100, R&D Systems) were used as the source of PD-L1.
Mouse splenocytes harvested from 6-8 weeks old C57 BL6 mice; RPMI 1640 (GIBCO, Cat #11875); DMEM with high glucose (GIBCO, Cat #D6429); Fetal Bovine Serum [Hyclone, Cat #SH30071.03]; Penicillin (10000 unit/mL)-Streptomycin(10,000 μg/mL) Liquid (GIBCO, Cat #15140-122); MEM Sodium Pyruvate solution 100 mM (100×), Liquid (GIBCO, Cat #11360); Nonessential amino acid (GIBCO, Cat #11140); L-Glutamine (GIBCO, Cat #25030); Anti-CD3 antibody (eBiosciences—16-0032); Anti-CD28 antibody (eBiosciences—16-0281); ACK lysis buffer (1 mL) (GIBCO, Cat #-A10492); Histopaque (density-1.083 gm/mL) (SIGMA 10831); Trypan blue solution (SIGMA-T8154); 2 mL Norm Ject Luer Lock syringe-(Sigma 2014-12); 40 μm nylon cell strainer (BD FALCON 35230); Hemacytometer (Bright line-SIGMA Z359629); FACS Buffer (PBS/0.1% BSA): Phosphate Buffered Saline (PBS) pH 7.2 (HiMedia TS1006) with 0.1% Bovine Serum Albumin (BSA) (SIGMA A7050) and sodium azide (SIGMA 08591); 5 mM stock solution of CFSE: CFSE stock solution was prepared by diluting lyophilized CFSE with 180 μL of Dimethyl sulfoxide (DMSO C2H6SO, SIGMA-D-5879) and aliquoted in to tubes for further use. Working concentrations were titrated from 10 μM to 1 μM. (eBioscience—650850-85); 0.05% Trypsin and 0.02% EDTA (SIGMA 59417C); 96-well format ELISA plates (Corning CLS3390); BD FACS caliber (E6016); Recombinant mouse B7-H1/PDL1 Fc Chimera, (rm-PD-L1 cat no: 1019-B7-100).
Splenocytes harvested in a 50 mL falcon tube by mashing mouse spleen in a 40 μm cell strainer were further treated with 1 mL ACK lysis buffer for 5 min at room temperature. After washing with 9 mL of RPMI complete media, cells were re-suspended in 3 mL of 1×PBS in a 15 mL tube. 3 mL of Histopaque was added carefully to the bottom of the tube without disturbing overlaying splenocyte suspension. After centrifuging at 800×g for 20 min at room temperature, the opaque layer of splenocytes was collected carefully without disturbing/mixing the layers. Splenocytes were washed twice with cold 1×PBS followed by total cell counting using Trypan Blue exclusion method and used further for cell based assays.
Splenocytes were cultured in RPMI complete media (RPMI+10% fetal bovine serum+1 mM sodium pyruvate+10,000 units/mL penicillin and 10,000 μg/mL streptomycin) and maintained in a CO2 incubator with 5% CO2 at 37° C.
CFSE is a dye that passively diffuses into cells and binds to intracellular proteins. 1×10^6 cells/mL of harvested splenocytes were treated with 5 μM of CFSE in pre-warmed 1×PBS/0.1% BSA solution for 10 min at 37° C. Excess CFSE was quenched using 5 volumes of ice-cold culture media to the cells and incubated on ice for 5 min. CFSE labelled splenocytes were further given three washes with ice cold complete RPMI media. CFSE labelled 1×10^5 splenocytes added to wells containing either MDA-MB231 cells (1×10^5 cells cultured in high glucose DMEM medium) or recombinant […] PDL-1 (100 ng/mL) and test compounds. Splenocytes were stimulated with anti-mouse CD3 and anti-mouse CD28 antibody (1 μg/mL each), and the culture was further incubated for 72 h at 37° C. with 5% CO2. Cells were harvested and washed thrice with ice cold FACS buffer and % proliferation was analyzed by flow cytometry with 488 nm excitation and 521 nm emission filters.
Percent splenocyte proliferation was analyzed using cell quest FACS program and percent rescue of splenocyte proliferation by compound was estimated after deduction of % background proliferation value and normalising to % stimulated splenocyte proliferation (positive control) as 100%.
Stimulated splenocytes: Splenocytes+anti-CD3/CD28 stimulation
Background proliferation: Splenocytes+anti-CD3/CD28+PD-L1
Compound proliferation: Splenocytes+anti-CD3/CD28+PD-L1+Compound […]

Structure (SMILES)	Percent rescue of splenocyte proliferation @ 100 nM compound concentration [%]
CC(O)[C@@H](NC(=O)N[C@H](CC(N)=O)c1nc([C@H](N)CO)no1)C(=O)O (some centres unmarked) [Compound 15]	83
CC(O)[C@H](NC(=O)N[C@@H](CC(N)=O)c1nc([C@@H](N)CO)no1)C(N)=O (some centres unmarked) [Compound 7]	55
CC(O)[C@H](NC(=O)N[C@@H](CC(N)=O)c1nc([C@H](N)CO)no1)C(=O)O (some centres unmarked) [Compound 12]	64
CC(O)[C@@H](NC(=O)N[C@@H](CC(N)=O)c1nc([C@H](N)CO)no1)C(=O)O (some centres unmarked) [Compound 16]	72
CC(O)[C@H](NC(=O)N[C@@H](CCC(N)=O)c1nc([C@@H](N)CO)no1)C(=O)O (some centres unmarked) [Compound 20]	69
N[C@@H](CO)c1noc([C@H](CC(=O)O)NC(=O)N[C@@H](CO)C(=O)O)n1 [Compound 25]	91
CC(O)[C@H](NC(=O)N[C@@H](CC(=O)O)c1nc([C@@H](N)CO)no1)C(=O)O (some centres unmarked) [Compound 24]	52
CC(O)[C@H](NC(=O)N[C@H](CC(N)=O)c1nc([C@H](N)CO)no1)C(=O)O (some centres unmarked) [Compound 17]	55
CCCC(=O)N[C@@H](CO)c1noc([C@H](CC(N)=O)NC(=O)N[C@H](C(=O)O)C(C)O)n1 (some centres unmarked) [Compound 9]	34
N[C@@H](CO)c1noc([C@H](CCC(=O)O)NC(=O)N[C@@H](CO)C(=O)O)n1 [Compound 8]	67
NC(=O)C[C@H](N)c1nc([C@@H](N)CO)no1 [Compound 1]	93
CC(O)[C@@H](N)c1noc([C@@H](CC(N)=O)NC(=O)N[C@H](CO)C(=O)O)n1 (some centres unmarked) [Compound 5]	67.6
CC(O)[C@H](NC(=O)N[C@@H](CC(N)=O)c1nc([C@@H](N)CO)no1)C(=O)O (some centres unmarked) [Compound 4]	89
CC(O)[C@@H](NC(=O)N[C@@H](CC(N)=O)c1nc([C@@H](N)CO)no1)C(=O)O (some centres unmarked) [Compound 11]	90
CC(O)[C@H](N)c1noc([C@H](CCC(N)=O)NC(=O)N[C@@H](CO)C(=O)O)n1 (some centres unmarked) [Compound 22]	55
COC(=O)[C@@H](NC(=O)N[C@@H](CC(N)=O)c1nc([C@@H](N)CO)no1)C(C)O (some centres unmarked) [Compound 6]	84
NC(=O)C[C@H](NC(=O)N[C@@H](CO)C(=O)O)c1nc([C@@H](N)CO)no1 [Compound 2]	50
NC(=O)CC[C@H](NC(=O)N[C@@H](CO)C(=O)O)c1nc([C@@H](N)CO)no1 [Compound 21]	47
CC(O)[C@@H](NC(=O)N[C@H](CC(N)=O)c1nc([C@@H](N)CO)no1)C(=O)O (some centres unmarked) [Compound 18]	64
COC[C@H](N)c1noc([C@H](CC(N)=O)NC(=O)N[C@H](C(=O)O)C(C)O)n1 (some centres unmarked) [Compound 10]	49
CC(O)[C@H](NC(=O)N[C@@H](CCC(=O)O)c1nc([C@@H](N)CO)no1)C(=O)O (some centres unmarked) [Compound 19]	88
CC(O)[C@H](NC(=O)N[C@@H](CCC(N)=O)c1nc([C@@H](N)C(C)O)no1)C(=O)O (some centres unmarked) [Compound 23]	74
CC(O)[C@H](NC(=O)N[C@H](CC(N)=O)c1nc([C@@H](N)CO)no1)C(=O)O (some centres unmarked) [Compound 13]	74
